According to patent publication US20100004272A1, “Modulators of metabolism and the treatment of disorders related thereto” (ARENA PHARMACEUTICALS, INC., priority 2006, published 2010):

Columns and labels:
RUP3 receptor [1] = target: T1, RUP3 receptor (Rattus norvegicus, UniProt Q7TQN8); test: RUP3 dose response in melanophores (rat RUP3); format: cell-based
T1 construct: expressed in transfected cells; host or cells: melanophores, electroporated
T1 sequence (Q7TQN8 1-468): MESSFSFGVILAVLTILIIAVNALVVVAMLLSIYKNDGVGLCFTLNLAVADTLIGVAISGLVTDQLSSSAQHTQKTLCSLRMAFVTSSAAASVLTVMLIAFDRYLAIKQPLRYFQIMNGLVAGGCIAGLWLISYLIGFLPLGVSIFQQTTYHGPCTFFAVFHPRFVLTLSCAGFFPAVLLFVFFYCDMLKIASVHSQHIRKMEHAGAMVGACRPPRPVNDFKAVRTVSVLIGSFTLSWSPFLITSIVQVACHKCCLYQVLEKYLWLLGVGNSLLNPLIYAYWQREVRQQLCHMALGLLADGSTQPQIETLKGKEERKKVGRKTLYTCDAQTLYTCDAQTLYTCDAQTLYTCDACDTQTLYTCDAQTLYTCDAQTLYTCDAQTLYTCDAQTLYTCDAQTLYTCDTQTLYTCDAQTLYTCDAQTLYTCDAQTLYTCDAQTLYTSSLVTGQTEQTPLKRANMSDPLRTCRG
Method: (§1) Melanophores are maintained in culture as reported by Potenza, M. N. and Lerner, M. R., in Pigment Cell Research, Vol. 5, 372-378, 1992 and transfected with the RUP3 expression vector (pCMV) using electroporation. Following electroporation, the transfected cells are plated into 96 well plates for the assay. The cells are then allowed to grow for 48 hours in order to both recover from the electroporation procedure and attain maximal receptor expression levels. On the assay day, the growth medium on the cells is replaced with serum-free buffer containing 10 nM melatonin. The melatonin acts via an endogenous Gi-coupled GPCR in the melanophores to lower intracellular cAMP levels. In response to lowered cAMP levels, the melanophores translocate their pigment to the center of the cell. The net effect of this is a significant decrease in the absorbance reading of the cell monolayer in the well, measured at […]. After a 1-hour incubation in melatonin, the cells become completely pigment-aggregated. At this point a baseline absorbance reading is collected. Serial dilutions of test compounds are then added to the plate and compounds that stimulate RUP3 produce increases in intracellular cAMP levels. […] The measured increase in absorbance compared to the baseline reading allows one to quantitate the degree of receptor stimulation and plot a dose-response curve.

RUP3 receptor [2] = target: T2, RUP3 receptor (Homo sapiens, UniProt Q8TDV5); test: RUP3 dose response in melanophores (human RUP3); format: cell-based
T2 construct: expressed in transfected cells; host or cells: melanophores (as per Potenza and Lerner 1992), electroporated
T2 sequence (Q8TDV5 1-335): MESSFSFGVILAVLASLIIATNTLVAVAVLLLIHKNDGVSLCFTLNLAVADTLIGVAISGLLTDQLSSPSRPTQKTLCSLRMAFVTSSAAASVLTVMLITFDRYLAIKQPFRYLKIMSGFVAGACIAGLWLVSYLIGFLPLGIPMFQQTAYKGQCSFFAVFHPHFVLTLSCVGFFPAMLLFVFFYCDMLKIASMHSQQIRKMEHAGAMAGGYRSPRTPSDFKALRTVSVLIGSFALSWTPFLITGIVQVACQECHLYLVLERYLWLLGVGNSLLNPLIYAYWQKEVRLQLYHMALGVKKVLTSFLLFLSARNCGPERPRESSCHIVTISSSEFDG
Method: as §1

[3] = Rat dose-range PK study (dose escalation pharmacokinetics); format: in vivo; settings: PO 3, 30, 300 mg/Kg, FIG. 1
Method: Male SD rats (250-300 g) were purchased from Charles River Laboratory; upon receipt, animals were placed under light-dark cycle (6:30 am-6:30 pm lights on) They were allowed ad libitum access to water and 4 pieces of food daily (Purina Meals Rodent Diet, Product Number 5001).
Compound formulations were prepared as following: The IV injection formulation was prepared in 20% hydroxypropyl-beta-cyclodextrin with concentration of 0.667 mg/mL. The PO formulations were prepared in 0.5% hydroxypropyl methylcellulose with concentrations of […]. The dosing volume for IV injection was 3 mL/Kg and for PO administration was 10 mL/Kg. Four rats were used for each dose group. […]
Plasma samples were prepared as follows. […] Calibration standards were typically prepared in the range of 2.0 ng/mL to 10 μg/mL with linear regression for quantitation. […]
Results were calculated by noncompartmental analysis using WinNonlin Pro version 3.1 based on plasma concentration-time profiles for individual animals. Plasma levels were determined as described above and the oral and intravenous area under the concentration vs. time curve (AUC was calculated using the linear trapezoidal rule up to the last measurable concentration and was then extrapolated to infinity) were compared to determine the % bioavailability (% oF) by the following formula: Dose (IV)*AUC (oral)/Dose (oral)*AUC (IV). […]

RUP3 receptor [4] = target: T3, RUP3 receptor (Mus musculus, UniProt Q7TQP3); test: RUP3 dose response in melanophores (mouse RUP3); format: cell-based
T3 construct: expressed in transfected cells; host or cells: melanophores, electroporated
T3 sequence (Q7TQP3 1-335): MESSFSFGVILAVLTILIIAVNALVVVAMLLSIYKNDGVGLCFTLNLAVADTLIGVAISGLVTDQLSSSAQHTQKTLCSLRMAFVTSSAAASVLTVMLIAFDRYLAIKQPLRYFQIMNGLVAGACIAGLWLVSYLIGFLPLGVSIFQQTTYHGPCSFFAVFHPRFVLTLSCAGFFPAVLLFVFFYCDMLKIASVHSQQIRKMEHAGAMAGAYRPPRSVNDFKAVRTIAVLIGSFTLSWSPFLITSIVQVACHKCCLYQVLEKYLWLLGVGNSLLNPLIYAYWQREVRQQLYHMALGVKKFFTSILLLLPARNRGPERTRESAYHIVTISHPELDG
Method: as §1

RUP3 receptor [5] = target: T4, RUP3 receptor (Canis lupus familiaris, UniProt A0A8I3QZL6); test: RUP3 dose response in melanophores (dog RUP3); format: cell-based
T4 sequence (A0A8I3QZL6 1-335): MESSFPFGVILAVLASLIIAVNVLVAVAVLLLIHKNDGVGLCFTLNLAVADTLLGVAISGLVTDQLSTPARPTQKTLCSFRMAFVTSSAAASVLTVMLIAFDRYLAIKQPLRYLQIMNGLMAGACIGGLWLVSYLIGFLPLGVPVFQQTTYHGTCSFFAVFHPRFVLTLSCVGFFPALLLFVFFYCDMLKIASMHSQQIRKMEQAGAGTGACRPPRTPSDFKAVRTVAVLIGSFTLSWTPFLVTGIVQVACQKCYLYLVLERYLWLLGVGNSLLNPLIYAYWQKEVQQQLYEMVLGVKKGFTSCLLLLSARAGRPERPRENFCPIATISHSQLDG
Method: as §1

Male Sprague Dawley rats = test: Oral glucose tolerance test (oGTT) in rats; format: in vivo, rat; settings: fasted male Sprague Dawley rats, p.o. 30 min before dextrose 3 g/kg, doses 0.3, 3 or 30 mg/kg (dose of this value not stated), mean of six animals
Method: General Procedure—Oral Glucose tolerance test (oGTT)
Male Sprague Dawley rats (Harlan, San Diego, Calif.) weighing approximately 350-375 g were fasted for 16 hours and randomly grouped (n=6) to receive a RUP3 agonist at 0.3, 3 or 30 mg/kg. Compounds were delivered orally via a gavage needle (p.o., volume 2 mL/kg). At time 0, levels of blood glucose were assessed using a glucometer (Accu-Chek Advantage, Roche Diagnostics), and rats were administered either vehicle (20% hydroxypropyl-beta-cyclodextrin) or test compound. Thirty minutes after administration of test compound, levels of blood glucose were again assessed, and rats were administered dextrose orally at a dose of 3 g/kg. Blood glucose measurements were then taken 30 min, 60 min, and 120 min after this time.

For Cc1nc(S(C)(=O)=O)ccc1Nc1ncnc(OC2CCN(C(=O)OC(C)C)CC2)c1C [Formula (I), 4-[6-(6-methanesulfonyl-2-methyl-pyridin-3-ylamino)-5-methyl-pyrimidin-4-yloxy]-piperidine-1-carboxylic acid isopropyl ester], the EC50 (RUP3 receptor [1]) was 42 nM, the EC50 (RUP3 receptor [2]) was 2 nM and the “dose escalation pharmacokinetics (AUC vs. dose linearity)” value [3] was “essentially linear dose escalation pharmacokinetics”. For the same molecule, the EC50 (RUP3 receptor [4]) was 43 nM, the EC50 (RUP3 receptor [5]) was 8 nM and the “mean percent inhibition of glucose excursion” value (Male Sprague Dawley rats) was 38%.
